Values quoted from earlier work as cited in patent US9340559B2, “Proteasome inhibitor delanzomib for use in the treatment of lupus” (Cephalon, Inc., priority 2011, dated 2016).

Legend:
[1] = system: NZB/W F1 mice; conditions: lupus prone NZB/W F1 mice; cited from earlier work
[2] = system: MRL/lpr mice; conditions: 6 control animals, 5 on drug, p=0.03; cited from earlier work

Compound: CC(C)C[C@H](NC(=O)[C@H](Cc1ccccc1)NC(=O)c1cnccn1)B(O)O [bortezomib, reference compound]
- proteinuria [1]: significantly reduced proteinuria
- renal pathology [1]: improved renal pathology
- survival compared to vehicle [1]: markedly prolonged survival
- survival [2]: significantly improved survival
